Where “and” joins values, the source holds several entries; their conditions need not be identical. Equal entries are not always repeated. Where two headings read alike, the source gives them in different places.
How the values were obtained:
[1] = biological target: T1, MT1-MMP hemopexin domain (Homo sapiens, UniProt P50281); assay: Fluorescence polarisation competition binding assay; conditions: human MT1-MMP
T1 construct: residues Cys319-Gly511 from the human gene; His6 (N); made in house; host or cells: HEK293 cells (transient, pEXPR-IBA42 vector)
From the text: The MT1-MMP hemopexin-like repeats (also known as the MT1-MMP hemopexin domain), residues Cys319-Gly511 from the human gene, were transiently expressed in HEK293 cells as secreted N-terminally His6-tagged soluble protein, using the pEXPR-IBA42 (IBA) expression vector. Following expression, the protein was purified by Nickel-NTA affinity chromatography followed by gel filtration, and purity was checked by SDS-PAGE. Batch to batch variability was also monitored by fluorescence thermal shift experiments in the presence/absence of a hemopexin domain binding bicycle.
(§1) Binding affinity was measured using competition assays using Fluorescence Polarisation (anisotropy).
Fluoresceination may be performed on the N-terminal amino group of the peptide, which is separated from the bicycle core sequence by a sarcosine spacer (usually Sar5). This can be done during Fmoc solid phase synthesis or post-synthetically (after cyclisation with TBMB and purification) if the N-terminal amino group is unique to the peptide. Fluoresceination can also be performed on the C-terminus, usually on a Lysine introduced as the first C-terminal residue, which is then separated from the bicycle core sequence by a sarcosine spacer (usually Sar6). Thus, N-terminal tracers can have a molecular format described as Fluo-Gly-Sar5-A(BicycleCoreSequence), and (BicycleCoreSequence)-A-Sar6-K(Fluo) for a C-terminally fluoresceinated construct. Fluorescent tracers used in the Examples are A-(17-69)-A-Sar6-K(Fluo), A-(17-69-07)-A-Sar6-K(Fluo), and A-(17-69-12)-A-Sar6-K(Fluo).
(§2) Here, a pre-formed complex of PEX with the fluorescent PEX-binding tracer is titrated with free, non-fluoresceinated bicyclic peptide. Since all 17-69-based peptides are expected to bind at the same site, the titrant will displace the fluorescent tracer from PEX. Dissociation of the complex can be measured quantitatively, and the Kd of the competitor (titrant) to the target protein determined. The advantage of the competition method is that the affinities of non-fluoresceinated bicyclic peptides can be determined accurately and rapidly.
(§3) Subsequently, the non-fluorescent competitor bicyclic peptide (usually just the bicycle core sequence) is titrated, such that it displaces the fluorescent tracer from the target protein. The displacement of the tracer is measured and associated with a drop in fluorescence polarisation. The drop in fluorescence polarisation is proportional to the fraction of target protein bound with the non-fluorescent titrant, and thus is a measure of the affinity of titrant to target protein.
(§4) The raw data is fit to the analytical solution of the cubic equation that describes the equilibria between fluorescent tracer, titrant, and binding protein. The fit requires the value of the affinity of fluorescent tracer to the target protein, which can be determined separately by direct binding FP experiments (see previous section).

[2] = system: HT1080 tumor cells; assay: In vivo efficacy against HT1080 tumors in BALB/c nude mice; conditions: biw dosing, BALB/c nude mice with HT1080 tumors
Protocol: HT1080 tumor cells were maintained in vitro as a monolayer culture in EMEM medium supplemented with 10% heat inactivated fetal bovine serum at 37 C in an atmosphere of 5% CO2 and air. The tumor cells were routinely subcultured twice weekly by trypsin-EDTA treatment. The cells growing in an exponential growth phase were harvested and counted for tumor inoculation.
BALB/c nude mice were inoculated subcutaneously at the right flank with HT1080 tumor cells […] in 0.2 ml of PBS for tumor development. 39 animals were randomized when the average tumor volume reached […].
The BDC compounds were formulated at 0.03 mg/ml in a vehicle buffer containing 25 mM histidine and 10% Sucrose. The formulations were administered twice weekly (biw) at 0.3, 1, 3 and 10 mg/kg. Tumor volume and body weight were measured up to 14 days from the first dosing.

[3] = biological target: rat/mouse MT1-MMP (Mus musculus, UniProt P53690); assay: Binding affinity to rat/mouse MT1-MMP, measured as previously described; conditions: Binding Affinity (Ki in nM) rat/mouse ki, bicycle peptide-drug conjugates, two values given
Protocol: as §1, §2, §3
as §4, with “section). The curve fitting was performed using Sigmaplot 12.0 and used an adapted version of the equation described by Zhi-Xin Wang (FEBS Letters 360 (1995) 111-114).” for “section).”
The in vitro binding affinities of the bicycle peptide-drug conjugates prepared above were measured for MT1-MMP as previously described herein.

[4] = biological target: MT1-MMP (Homo sapiens, UniProt P50281); assay: SPR binding; conditions: read-out: Binding Affinity Kd (SPR)

Compound	Ki ([1]; Binding Affinity (Ki in nM) Human ki, bicycle peptide-drug conjugates, two values given)	tolerated dose [2]	Ki [3]	Kd [4] [nM]	Ki ([1]; bicycle peptides, read-out: Binding Affinity Ki (h)) [nM]
CC[C@H](C)[C@@H]([C@@H](CC(=O)N1CCC[C@H]1[C@H](OC)[C@@H](C)C(=O)N[C@H](C)[C@@H](O)c1ccccc1)OC)N(C)C(=O)[C@@H](NC(=O)[C@H](C(C)C)N(C)C(=O)OCc1ccc(NC(=O)[C@H](CCCNC(N)=O)NC(=O)[C@@H](NC(=O)Cn2cc(CCC(=O)N[C@@H](C)C(=O)N[C@H]3CNCc4cc5cc(c4)CSC[C@H](NC(=O)[C@@H](C)NC(=O)[C@H](Cc4cccc6ccccc46)NC(=O)[C@H](CCC(=O)O)NC(=O)[C@H](CC(N)=O)NC(=O)[C@@H](C)NC3=O)C(=O)N[C@@H](CCC(=O)O)C(=O)N[C@@H](CC(=O)O)C(=O)N[C@@H](Cc3ccccc3)C(=O)N[C@@H](Cc3ccc(O)cc3)C(=O)N[C@@H](CC(=O)O)C(=O)N[C@@H](C(C)(C)C)C(=O)N[C@H](C(N)=O)CNC5)nn2)C(C)C)cc1)C(C)C [BT17BDC-59]	2.8 nM and 2.7 nM	up to 3 mg/kg	1.8 nM and 1.7 nM		
C#CCCC(=O)NCCC(=O)N(C)CC(=O)N(C)CC(=O)N(C)CC(=O)N(C)CC(=O)N(C)CC(=O)N(C)CC(=O)N(C)CC(=O)N(C)CC(=O)N(C)CC(=O)N(C)CC(=O)N[C@@H](C)C(=O)N[C@H]1CN(C)Cc2cc3cc(c2)CN(C)C[C@@H](C(N)=O)NC(=O)[C@H](C(C)(C)C)NC(=O)[C@H](CC(=O)O)NC(=O)[C@H](Cc2ccc(O)cc2)NC(=O)[C@H](Cc2ccccc2)NC(=O)[C@H](CC(=O)O)NC(=O)[C@H](CCC(=O)O)NC(=O)[C@H](CSC3)NC(=O)[C@@H](C)NC(=O)[C@H](Cc2cccc3ccccc23)NC(=O)[C@H](CCC(=O)O)NC(=O)[C@H](CC(N)=O)NC(=O)[C@@H](C)NC1=O [17-69-07-N450, (PYA)-(B-Ala)-Sar10-A(Dap(Me))(D-Ala)NE(1Nal)(D-Ala)CEDFYD(tBuGly)(Dap(Me))]				1.91	3.7

From patent publication US11730819B2, “Peptide derivatives having novel linkage structures” (priority 2016, dated 2023)
